# Where two headings read alike, the source gives them in different places. Where a SMILES comes first, the peptide text is derived from it. Bridges are numbered along the chain shown (N, C = ends). [ ]: non-standard residue; d: D form. The star is where a group is joined. hPhe(3-Cl-4-CF3) = N[C@@H](CCc1ccc(C(F)(F)F)c(Cl)c1)C(=O)O; NPrPhe(4-CF3) = CCCN[C@@H](Cc1ccc(C(F)(F)F)cc1)C(=O)O; NMePhe(4-CF3) = CN[C@@H](Cc1ccc(C(F)(F)F)cc1)C(=O)O; NMeGly(cPent) = CN[C@H](C(=O)O)C1CCCC1; Pro(4,4-F2) = O=C(O)[C@@H]1CC(F)(F)CN1; Hyp = O=C(O)[C@@H]1C[C@@H](O)CN1; NMeD = CN[C@@H](CC(=O)O)C(=O)O; NMeL = CN[C@@H](CC(C)C)C(=O)O; Morpholide = C1CN(*)CCO1; Ac5c = NC1(C(=O)O)CCCC1; Aze = O=C(O)[C@@H]1CCN1; Ac4c = NC1(C(=O)O)CCC1; Sar = CNCC(=O)O
# What was measured:
# [1] = system: human lung cancer strain NCI-H441; assay type: cell-based
# Summary of the method: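 Readout: […] after the ATP-based reagent. Compound: serial dilutions in dimethyl sulfoxide.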
# [2] = target: GDP-bound NRAS wild-type protein (Homo sapiens, UniProt P01111); test: Binding to NRAS by surface plasmon resonance (SPR), KD and KD ratio to KRAS
# GDP-bound NRAS wild-type protein, sequence (P01111 whole entry): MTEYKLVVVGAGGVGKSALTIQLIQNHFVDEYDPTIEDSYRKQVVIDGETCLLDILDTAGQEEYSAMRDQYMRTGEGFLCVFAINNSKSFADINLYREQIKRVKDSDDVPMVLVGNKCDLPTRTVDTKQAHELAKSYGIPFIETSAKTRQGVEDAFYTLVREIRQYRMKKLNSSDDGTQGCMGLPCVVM
# Summary of the method: (§1)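 Affinity is measured by surface plasmon resonance at 30°C against captured, GDP-loaded RAS carrying a biotinylated Avi tag. Compounds are titrated by single-cycle kinetics, and KD comes from a 1:1 fit.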
# [3] = target: HRAS wild-type protein (Homo sapiens, UniProt P01112); test: Binding to HRAS by surface plasmon resonance (SPR), KD and KD ratio to KRAS
# HRAS wild-type protein, sequence (P01112 whole entry): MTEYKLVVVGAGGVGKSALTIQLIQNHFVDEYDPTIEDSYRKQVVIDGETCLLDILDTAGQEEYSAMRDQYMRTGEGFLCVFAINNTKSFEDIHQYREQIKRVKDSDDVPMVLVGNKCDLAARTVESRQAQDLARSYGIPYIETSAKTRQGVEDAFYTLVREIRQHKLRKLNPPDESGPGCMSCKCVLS
# Summary of the method: as §1
# [4] = ratio of KD for GDP-bound NRAS wild-type protein to KD for KRAS
# [5] = ratio of KD for HRAS wild-type protein to KD for KRAS
# [6] = ratio of the KD value with respect to GDP-bound NRAS wild-type protein to the KD value with respect to KRAS
# [7] = ratio of the KD value with respect to HRAS wild-type protein to the KD value with respect to KRAS
# [8] = ratio of KD value for GDP-bound NRAS wild-type protein to KD value for KRAS (SPR)
# [9] = ratio of KD value for HRAS wild-type protein to KD value for KRAS (SPR)
IC50 [1] [nM],SMILES,"NRAS /KRAS [2, 4]","HRAS /KRAS [3, 5]","NRAS /KRAS [2, 6]","HRAS /KRAS [3, 7]","IC50 ([1]; NCI-H441 cells, 4 days, CellTiter-Glo, read-out: NCl-H441 IC50) [nM]","NRAS /KRAS [2, 8]","HRAS /KRAS [3, 9]"
1.9,CC[C@H](C)[C@@H]1NC(=O)[C@@H]2CCCCc3ccc(cc3)C[C@@H](C(=O)N(C)CC(=O)N[C@@H](CCc3ccc(C(F)(F)F)c(OC)c3)C(=O)N3CC4(CC4)C[C@H]3C(=O)NC3(CC(C)(C)C3)C(=O)N(C)[C@@H](C3CCCC3)C(=O)N(C)[C@H](C(=O)N(C)CC)CC(=O)N2C)N2CC/C=C\C[C@@H](C2=O)N(C)C(=O)CN(C)C1=O [PP3081],A (a compound having 10 or more and less than 20 is denoted as A),B (a compound having 3 or more and less than 10 is denoted as B),,,,,
10.9,CC[C@H](C)[C@@H]1NC(=O)[C@H](CC(C)C)N(C)C(=O)C[C@@H](C(=O)N2CCOCC2)N(C)C(=O)[C@H](C2CCCC2)N(C)C(=O)C2(CCCC2)NC(=O)[C@@H]2CCCN2C(=O)[C@H](CCc2ccc(C(F)(F)F)c(Cl)c2)NC(=O)CN(C)C(=O)[C@H](Cc2ccc(C(F)(F)F)cc2)N(C)C(=O)CN(C)C(=O)CN(C)C1=O [PP0076] ([NMeL]I[Sar][Sar][NMePhe(4-CF3)][Sar][hPhe(3-Cl-4-CF3)]P[Ac5c][NMeGly(cPent)][NMeD]-Morpholide; lactam N-11),C (A compound having a KD ratio of 0.1 or more and less than 3 is denoted as C),C (A compound having a KD ratio of 0.1 or more and less than 3 is denoted as C),,,,,
98.3,CC[C@H](C)[C@@H]1NC(=O)[C@H](CC(C)C)N(C)C(=O)C[C@@H](C(=O)N(C)C)N(C)C(=O)[C@H](C2CCCC2)N(C)C(=O)C2(CCCC2)NC(=O)[C@@H]2CCCN2C(=O)[C@H](CCc2ccc(C(F)(F)F)c(Cl)c2)NC(=O)CN(C)C(=O)[C@H](Cc2ccc(C)cc2)N2CC=CCOC[C@@H](C2=O)N(C)C(=O)CN(C)C1=O [PP0627],,,C (A compound having a KD ratio of 0.1 or more and less than 3 is denoted as C),C (A compound having a KD ratio of 0.1 or more and less than 3 is denoted as C),,,
,CCC[C@H]1C(=O)N[C@@H]([C@@H](C)CC)C(=O)N(C)CC(=O)N(C)[C@H]2C/C=C\CCN(C2=O)[C@@H](Cc2ccc(C(F)(F)F)cc2)C(=O)N(C)CC(=O)N[C@@H](CCc2cc(C)c(C(F)F)c(Cl)c2)C(=O)N2C[C@H](OCC)C[C@H]2C(=O)NC2(CC(C)(C)C2)C(=O)N(C)[C@@H](C2CCCC2)C(=O)N(C)[C@H](C(=O)N(C)C)CC(=O)N1C [PP2866],A (a compound having 10 or more and less than 20 is denoted as A),A (a compound having 10 or more and less than 20 is denoted as A),,,39.6,,
223,CCO[C@@H]1C[C@H]2C(=O)NC3(CCC3)C(=O)N(C)[C@@H](C3CCCC3)C(=O)N(C)[C@H](C(=O)N3CCOCC3)CC(=O)N(C)[C@@H](CC)C(=O)N[C@@H]([C@@H](C)CC)C(=O)N(C)CC(=O)N(C)[C@H]3CC(C)=CCN(C3=O)[C@@H](Cc3ccc(C(F)(F)F)cc3)C(=O)N(C)CC(=O)N[C@@H](CCc3cc(F)c(C(F)(F)F)c(F)c3)C(=O)N2C1 [PP1041],C (A compound having a KD ratio of 0.1 or more and less than 3 is denoted as C),C (A compound having a KD ratio of 0.1 or more and less than 3 is denoted as C),,,,,
64,CCCN1C(=O)CN(C)C(=O)CN(C)C(=O)[C@H]([C@@H](C)CC)NC(=O)[C@H](CC(C)C)N(C)C(=O)C[C@@H](C(=O)N2CCOCC2)NC(=O)[C@H](C2CCCC2)N(C)C(=O)C2(CCCC2)NC(=O)[C@@H]2C[C@@H](OCC)CN2C(=O)[C@H](CCc2ccc(C(F)(F)F)c(Cl)c2)NC(=O)CN(C)C(=O)[C@@H]1Cc1ccc(C(F)(F)F)cc1 [PP0323] ([NMeL]I[Sar][Sar][NPrPhe(4-CF3)][Sar][hPhe(3-Cl-4-CF3)][Hyp](Et)[Ac5c][NMeGly(cPent)]D-Morpholide; lactam N-11),B (a compound having 3 or more and less than 10 is denoted as B),B (a compound having 3 or more and less than 10 is denoted as B),,,,,
3.8,CCC[C@H]1C(=O)N[C@@H]([C@@H](C)CC)C(=O)N2CCC[C@H]2C(=O)N(C)[C@H]2C/C=C\CCN(C2=O)[C@@H](Cc2ccc(C)cc2)C(=O)N(C)CC(=O)N[C@@H](CCc2ccc(C(F)(F)F)c(OC)c2)C(=O)N2C[C@H](OCC)C[C@H]2C(=O)N(C)C2(CCC2)C(=O)N(C)[C@@H](C2CCCC2)C(=O)N(C)[C@H](C(=O)N(C)C)CC(=O)N1C [PP2332],,,A (a compound having 10 or more and less than 20 is denoted as A),B (a compound having 3 or more and less than 10 is denoted as B),,,
2.3,CCO[C@@H]1C[C@H]2C(=O)NC3(CC(C)(C)C3)C(=O)N(C)[C@@H](C3CCCC3)C(=O)N(C)[C@H](C(=O)N(C)C)CC(=O)N(C)[C@@H](CC(F)F)C(=O)N[C@@H]([C@@H](C)CC)C(=O)N(C)CC(=O)N(C)[C@H]3C/C=C\CCN(C3=O)[C@@H](Cc3ccc(C(F)(F)F)cc3)C(=O)N(C)CC(=O)N[C@@H](CCc3ccc(C(F)(F)F)c(Cl)c3)C(=O)N2C1 [PP1747],,,,,,A (a compound having 10 or more and less than 20 is denoted as A),A (a compound having 10 or more and less than 20 is denoted as A)
139,CC[C@H](C)[C@@H]1NC(=O)[C@H](CC(C)C)N(C)C(=O)C[C@@H](C(=O)N2CCOCC2)N(CC)C(=O)[C@H](C2CCCC2)N(C)C(=O)C2(CCCC2)NC(=O)[C@@H]2CCCN2C(=O)[C@H](CCc2cc(F)c(C(F)(F)F)c(F)c2)NC(=O)CN(C)C(=O)[C@H](Cc2ccc(C(F)(F)F)cc2)N2CCCCC[C@@H](C2=O)N(C)C(=O)CN(C)C1=O [PP0477],,,A (a compound having 10 or more and less than 20 is denoted as A),A (a compound having 10 or more and less than 20 is denoted as A),,,
39,"CCCN1C(=O)[C@@H]2CCN2C(=O)CN(C)C(=O)[C@H]([C@@H](C)CC)NC(=O)[C@H](CC(C)C)N(C)C(=O)C[C@@H](C(=O)N2CCOCC2)NC(=O)[C@H](C2CCCC2)N(C)C(=O)C2(CCCC2)NC(=O)[C@@H]2CC(F)(F)CN2C(=O)[C@H](CCc2ccc(C(F)(F)F)c(Cl)c2)NC(=O)CN(C)C(=O)[C@@H]1Cc1ccc(C(F)(F)F)cc1 [PP0351] ([NMeL]I[Sar][Aze][NPrPhe(4-CF3)][Sar][hPhe(3-Cl-4-CF3)][Pro(4,4-F2)][Ac5c][NMeGly(cPent)]D-Morpholide; lactam N-11)",C (A compound having a KD ratio of 0.1 or more and less than 3 is denoted as C),B (a compound having 3 or more and less than 10 is denoted as B),,,,,
44,CCO[C@@H]1C[C@H]2C(=O)NC3(CC(C)(C)C3)C(=O)N(CC)[C@@H](C3CCCC3)C(=O)N(C)[C@H](C(=O)N(C)C)CC(=O)N(C)[C@@H](CC)C(=O)N[C@@H]([C@@H](C)CC)C(=O)N(C)CC(=O)N(C)[C@H]3C/C=C\CCN(C3=O)[C@@H](Cc3ccc(C(F)(F)F)cc3)C(=O)N(C)CC(=O)N[C@@H](CCc3cc(F)c(C(F)(F)F)c(F)c3)C(=O)N2C1 [PP1913],,,A (a compound having 10 or more and less than 20 is denoted as A),A (a compound having 10 or more and less than 20 is denoted as A),,,
6,CCCOC[C@H]1C(=O)N[C@@H]([C@@H](C)CC)C(=O)N(C)CC(=O)N(C)[C@H]2C/C=C\CCN(C2=O)[C@@H](Cc2ccc(C(F)(F)F)cc2)C(=O)N(C)CC(=O)N[C@@H](CCc2cc(F)c(C(F)(F)F)c(F)c2)C(=O)N2C[C@H](OCC)C[C@H]2C(=O)NC2(CC(C)(C)C2)C(=O)N(C)[C@@H](C2CCCC2)C(=O)N(C)[C@H](C(=O)N(C)CCC)CC(=O)N1C [PP1673],,,,,,A (a compound having 10 or more and less than 20 is denoted as A),A (a compound having 10 or more and less than 20 is denoted as A)
50.4,CCCO[C@@H]1C[C@H]2C(=O)NC3(CCC3)C(=O)N(C)[C@@H](C3CCCC3)C(=O)N(C)[C@H](C(=O)N3CCOCC3)CC(=O)N(C)[C@@H](COC)C(=O)N[C@@H]([C@@H](C)CC)C(=O)N(C)CC(=O)N(C)[C@H]3CCCCCN(C3=O)[C@@H](Cc3ccc(C(F)(F)F)cc3)C(=O)N(C)CC(=O)N[C@@H](CCc3cc(F)c(C(F)(F)F)c(F)c3)C(=O)N2C1 [PP0838],B (a compound having 3 or more and less than 10 is denoted as B),B (a compound having 3 or more and less than 10 is denoted as B),,,,,
3.6,CCCN1C(=O)CN(C)C(=O)CN(C)C(=O)[C@H]([C@@H](C)CC)NC(=O)[C@H](CC(C)C)N(C)C(=O)C[C@@H](C(=O)N2CCOCC2)N(C)C(=O)[C@H](C2CCCC2)N(C)C(=O)C2(CCC2)NC(=O)[C@@H]2CCCN2C(=O)[C@H](CCc2ccc(C(F)(F)F)c(Cl)c2)NC(=O)CN(C)C(=O)[C@@H]1Cc1ccc(C(F)(F)F)cc1 [PP0197] ([NMeL]I[Sar][Sar][NPrPhe(4-CF3)][Sar][hPhe(3-Cl-4-CF3)]P[Ac4c][NMeGly(cPent)][NMeD]-Morpholide; lactam N-11),B (a compound having 3 or more and less than 10 is denoted as B),C (A compound having a KD ratio of 0.1 or more and less than 3 is denoted as C),,,,,

SMILES,IC50 [1] [nM],"NRAS /KRAS [2, 4]","HRAS /KRAS [3, 5]","NRAS /KRAS [2, 6]","HRAS /KRAS [3, 7]","IC50 ([1]; NCI-H441 cells, 4 days, CellTiter-Glo, read-out: NCl-H441 IC50) [nM]","NRAS /KRAS [2, 8]","HRAS /KRAS [3, 9]"
CCC[C@H]1C(=O)N[C@@H]([C@@H](C)CC)C(=O)N(C2CC2)CC(=O)N(C)[C@H]2C/C=C\CCN(C2=O)[C@@H](Cc2ccc(C)cc2)C(=O)N(C)CC(=O)N[C@@H](CCc2cc(C)c(C(F)F)c(C)c2)C(=O)N2C[C@H](OCC)C[C@H]2C(=O)NC2(CC(C)(C)C2)C(=O)N(C)[C@@H](C2CCCC2)C(=O)N(C)[C@H](C(=O)N(C)C)CC(=O)N1C [PP2873],128,A (a compound having 10 or more and less than 20 is denoted as A),A (a compound having 10 or more and less than 20 is denoted as A),,,,,
